Assay results from US7427637B2, “Mitotic kinesin inhibitors” (Merck & Co. Inc., priority 2003, dated 2008).
pIC50: −log10 of the molar value.

Molecular target: T1, human KSP motor domain (KSP(367H)) (Homo sapiens, UniProt P52732)
T1 construct: were used to amplify the motor domain and the neck linker region; made in house; host or cells: E. coli BL21 (DE3), pRSETa
T1 sequence (P52732 18-359 limits assumed): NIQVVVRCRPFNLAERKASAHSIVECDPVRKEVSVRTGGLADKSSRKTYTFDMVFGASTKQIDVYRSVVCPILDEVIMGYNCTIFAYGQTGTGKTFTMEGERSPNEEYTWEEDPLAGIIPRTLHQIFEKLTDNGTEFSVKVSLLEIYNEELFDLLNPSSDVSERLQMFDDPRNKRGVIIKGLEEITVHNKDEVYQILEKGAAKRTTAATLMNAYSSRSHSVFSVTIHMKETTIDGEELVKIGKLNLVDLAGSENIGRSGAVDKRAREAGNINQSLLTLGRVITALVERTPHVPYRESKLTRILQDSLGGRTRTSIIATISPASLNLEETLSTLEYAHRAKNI
Experiment: Kinesin ATPase in vitro assay
Format: biochemical
Conditions: kinesin motor domain with microtubules, 1 mM ATP, 23° C.; free phosphate by quinaldine red/ammonium molybdate, absorbance 540 nm
Text: I. Kinesin ATPase In Vitro Assay
Cloning and Expression of Human Poly-histidine Tagged KSP Motor Domain_(KSP(367H))
Plasmids for the expression of the human KSP motor domain construct were cloned by PCR using a pBluescript full length human KSP construct (Blangy et al., Cell, vol. 83, pp 1159-1169, 1995) as a template. The N-terminal primer 5′-[…] (SEQ. ID. NO.: 1) and the C-terminal primer 5′-[…] […] (SEQ. ID. NO.: 2) were used to amplify the motor domain and the neck linker region. The PCR products were digested with AseI and XhoI, ligated into the NdeI/XhoI digestion product of pRSETa (Invitrogen) and transformed into E. coli BL21 (DE3).
Cells were grown at 37° C. to an OD600 of 0.5. After cooling the culture to room temperature expression of KSP was induced with 100 μM IPTG and incubation was continued overnight. Cells were pelleted by centrifugation and washed once with ice-cold PBS. Pellets were flash-frozen and stored −80° C.
Cell pellets were thawed on ice and resuspended in lysis buffer (50 mM K-HEPES, pH 8.0, 250 mM KCl, 0.1% Tween, 10 mM imidazole, 0.5 mM Mg-ATP, 1 mM PMSF, 2 mM benzimidine, 1× complete protease inhibitor cocktail (Roche)). Cell suspensions were incubated with 1 mg/ml lysozyme and 5 mM β-mercaptoethanol on ice for 10 minutes, followed by sonication (3×30 sec). All subsequent procedures were performed at 4° C. Lysates were centrifuged at 40,000×g for 40 minutes. Supernatants were diluted and loaded onto an SP Sepharose column (Pharmacia, 5 ml cartridge) in buffer A (50 mM K-HEPES, pH 6.8, 1 mM MgCl2, 1 mM EGTA, 10 μM Mg-ATP, 1 mM DTT) and eluted with a 0 to 750 mM KCl gradient in buffer A. Fractions containing KSP were pooled and incubated with Ni-NTA resin (Qiagen) for one hour. The resin was washed three times with buffer B (Lysis buffer minus PMSF and protease inhibitor cocktail), followed by three 15-minute incubations and washes with buffer B. Finally, the resin was incubated and washed for 15 minutes three times with buffer C (same as buffer B except for pH 6.0) and poured into a column. KSP was eluted with elution buffer (identical to buffer B except for 150 mM KCl and 250 mM imidazole). KSP-containing fractions were pooled, made 10% in sucrose, and stored at −80° C.
Microtubules are prepared from tubulin isolated from bovine brain. Purified tubulin (>97% MAP-free) at 1 mg/ml is polymerized at 37° C. in the presence of 10 μM paclitaxel, 1 mM DTT, 1 mM GTP in BRB80 buffer (80 mM K-PIPES, 1 mM EGTA, 1 mM MgCl2 at pH 6.8). The resulting microtubules are separated from non-polymerized tubulin by ultracentrifugation and removal of the supernatant. The pellet, containing the microtubules, is gently resuspended in 10 μM paclitaxel, 1 mM DTT, 50 μg/ml ampicillin, and 5 μg/ml chloramphenicol in BRB80.
The kinesin motor domain is incubated with microtubules, 1 mM ATP (1:1 MgCl2: Na-ATP), and compound at 23° C. in buffer containing 80 mM K-HEPES (pH 7.0), 1 mM EGTA, 1 mM DTT, 1 mM MgCl2, and 50 mM KCl. The reaction is terminated by a 2-10 fold dilution with a final buffer composition of 80 mM HEPES and 50 mM EDTA (or, alternately, with a 1:1 addition of reaction volume to stop buffer (1.8M KCl and 50 mM EDTA)). Free phosphate from the ATP hydrolysis reaction is measured via a quinaldine red/ammonium molybdate assay by adding a 1.5 times volume of quench C (e.g., to a mixture of 40 μl reaction volume+40 μl stop buffer is then added 120 μl quench C). Quench A contains 0.1 mg/ml quinaldine red and 0.14% polyvinyl alcohol; quench B contains 12.3 mM ammonium molybdate tetrahydrate in 1.15 M sulfuric acid. Quench C is a 2:1 ratio of quench A:quench B The reaction is incubated for 5-10 minutes at 23° C., and the absorbance of the phospho-molybdate complex is measured at 540 nm.

| SMILES | pIC50 |
| --- | --- |
| O=C1NCC2C(c3cc(F)ccc3F)=CC(c3ccccc3)N12 (racemic) [Compound 2-4a, (±)-7-(2,5-Difluorophenyl)-5-phenyl-1,2,5,7a-tetrahydro-3H-pyrrolo[1,2-c]imidazol-3-one] | ≥ 4.30 |
| O=C1OCC2C(c3cc(F)ccc3F)=CC(c3ccccc3)N12 (racemic) [Compound 1-9a, (±)-(5S,7aR and 5R,7aS)-7-(2,5-Difluorophenyl)-5-phenyl-2,7a-dihydro-1H-pyrrole[1,2-c][1,3]oxazol-3-one] | ≥ 4.30 |
| CN1C[C@H]2C(c3cc(F)ccc3F)=C[C@@H](c3ccccc3)N2C1=O (racemic) [Compound 2A-1a, (±)-(5S,7aR)-7-(2,5-Difluorophenyl)-2-methyl-5-phenyl-1,2,5,7a-tetrahydro-3H-pyrrolo[1,2-c]imidazol-3-one] | ≥ 4.30 |
| CCN1C[C@H]2C(c3cc(F)ccc3F)=C[C@@H](c3ccccc3)N2C1=O (racemic) [Compound 2A-1b, (±)-(5S,7aR)-7-(2,5-Difluorophenyl)-2-ethyl-5-phenyl-1,2,5,7a-tetrahydro-3H-pyrrolo[1,2-c]imidazol-3-one] | ≥ 4.30 |
| CN(C)CCN1C[C@H]2C(c3cc(F)ccc3F)=C[C@@H](c3ccccc3)N2C1=O (racemic) [Compound 2A-1c, (±)-(5S,7aR)-7-(2,5-Difluorophenyl)-2-[2-(dimethylamino)ethyl]-5-phenyl-1,2,5,7a-tetrahydro-3H-pyrrolo[1,2-c]imidazol-3-one] | ≥ 4.30 |

Further lines, results first:

| pIC50 | SMILES |
| --- | --- |
| ≥ 4.30 | CCN(CC)CCN1C[C@H]2C(c3cc(F)ccc3F)=C[C@@H](c3ccccc3)N2C1=O (racemic) [Compound 2A-1d, (±)-(5S,7aR)-7-(2,5-Difluorophenyl)-2-[2-(diethylamino)ethyl]-5-phenyl-1,2,5,7a-tetrahydro-3H-pyrrolo[1,2-c]imidazol-3-one] |
| ≥ 4.30 | O=C1CNCC2C(c3cc(F)ccc3F)=CC(c3ccccc3)N12 (racemic) [Compound 3-2b, (±)-(2S,5S and 2R,5R)-7-(2,5-Difluorophenyl)-5-phenyl-1,2,5,7a-tetrahydro-3H-pyrrolo[1,2-a]pyrazin-4(1H)-one] |
| ≥ 4.30 | CN1CC(=O)N2[C@@H](C1)C(c1cc(F)ccc1F)=C[C@H]2c1ccccc1 (racemic) [Compound 4-1, (±)-(6S,8aR and 6R,8aS)-8-(2,5-Difluorophenyl)-2-methyl-6-phenyl-2,3,6,8a-tetrahydropyrrolo[1,2-a]pyrazin-4(1H)-one] |
| ≥ 4.30 | O=C1CN2[C@@H](CN1)C(c1cc(F)ccc1F)=C[C@H]2c1ccccc1 (racemic) [Compound 5-1, (±)-(6S,8aR and 6R,8aS)-8-(2,5-Difluorophenyl)-6-phenyl-1,2,6,8a-tetrahydropyrrolo[1,2-a]pyrazin-3(4H)-one] |
| ≥ 4.30 | O=C1CNC[C@H]2C(c3cc(F)ccc3F)=C[C@@H](c3ccccc3)N12 (racemic) [Compound 3-2a, (±)-(2S,5R and 2R,5S)-7-(2,5-Difluorophenyl)-5-phenyl-1,2,5,7a-tetrahydro-3H-pyrrolo[1,2-a]pyrazin-4(1H)-one] |
